{
  "source": "patent US20090012144A1",
  "about": "(priority 2000, published 2009)",
  "key": {"Tetranychus urticae": {"tested_on": "Tetranychus urticae", "assay": "Tetranychus test (OP-resistant/dip treatment)", "format": "in vivo", "experimental": "[table] To produce a suitable preparation of active compound, 1 part by weight of active compound is mixed with the stated amounts of solvent and emulsifier, and the concentrate is diluted with emulsifier-containing water to the desired concentration. Bean plants (Phaseolus vulgaris) which are heavily infested by all stages of the greenhouse […] spider mite (Tetranychus urticae) are dipped into the preparation of active compound of the desired concentration. After the desired period of time, the efficacy in % is determined. 100% means that all spider mites have been killed; 0% means that none of the spider mites have been killed."}, "[1]": {"assay": "log P determination by HPLC (reversed-phase C 18), EEC Directive 79/831 Annex V.A8", "format": "physicochemical", "settings": "HPLC, pH 2.3, 43° C.; read-out: log P (pH 2.3)", "experimental": "The log P values given in the tables and Preparation Examples above are determined in accordance with EEC Directive 79/831 Annex V.A8 by HPLC (High Performance Liquid Chromatography) using a reversed-phase column (C 18). Temperature: 43° C. […]\nCalibration was carried out using unbranched alkan-2-ones (having 3 to 16 carbon atoms) with known log P values (determination of the log P values by the retention times using linear interpolation between two successive […])."}, "Heliothis armigera": {"tested_on": "Heliothis armigera", "assay": "Heliothis armigera test (soya bean shoots, dip)", "format": "in vivo", "experimental": "[table] To prepare a suitable preparation of active compound, 1 part by weight of active compound is mixed with the stated amounts of solvent and emulsifier, and the concentrate is diluted with emulsifier-containing water to the desired concentration. Soya bean shoots (Glycine max) are treated by being dipped into the preparation of active compound of the desired concentration and are populated with caterpillars of the cotton bollworm (Heliothis armigera) while the leaves are still moist. After the desired period of time, the kill in % is determined. 100% means that all caterpillars have been killed; 0% means that none of the caterpillars have been killed."}, "Heliothis virescens": {"tested_on": "Heliothis virescens", "assay": "Heliothis virescens test (soya bean shoots, dip)", "format": "in vivo", "experimental": "[table] To prepare a suitable preparation of active compound, 1 part by weight of active compound is mixed with the stated amounts of solvent and emulsifier, and the concentrate is diluted with emulsifier-containing water to the desired concentration. Soya bean shoots (Glycine max) are treated by being dipped into the preparation of active compound of the desired concentration and are populated with Heliothis virescens caterpillars while the leaves are still moist. After the desired period of time, the kill in % is determined. 100% means that all caterpillars have been killed; 0% means that none of the caterpillars have been killed."}, "[2]": {"tested_on": "Amblyomma hebraeum nymphs", "assay": "Amblyomma hebraeum (EH) polyphargous tick nymphs/dip treatment", "format": "in vivo", "settings": "10 ppm, 1 min immersion, after 4 weeks; 100% = no normal ecdysis", "experimental": "[table] 20 mg of active compound are dissolved in 1 ml of dimethyl sulphoxide. To prepare a suitable formulation, the solution of active compound is diluted with water to the concentration desired in each case. 10 nymphs which have sucked themselves full are immersed for 1 min in the preparation of active compound to be tested. The animals are transferred to petri dishes (Ø 9.5 cm) fitted with filter paper discs and covered. After the nymphs have remained in a controlled-environment cabinet for 4 weeks, the ecdysis rate is determined. 100% means that none of the animals have undergone normal ecdysis. 0% means that all animals have undergone ecdysis."}, "[3]": {"tested_on": "Amblyomma hebraeum nymphs", "assay": "Amblyomma hebraeum (EH) tick nymphs/dip treatment, determination of the ED50", "format": "in vivo", "settings": "1 min immersion, ecdysis rate after 4 weeks; not determinable = 50% not reached at 1000 ppm", "experimental": "[table] 20 mg of active compound are dissolved in 1 ml of dimethyl sulphoxide. To prepare a suitable preparation, the solution of active compound is diluted with water to the concentration desired in each case. For the determination of the ED50 value, a dose-activity curve with the concentration spectrum 1000, 300, 100, 30, 10, 3, 1, 0.3, 0.1, 0.03, 0.01 ppm is prepared. 10 nymphs which have sucked themselves full are immersed for 1 min into the preparation of active compound to be tested. The animals are transferred to petri dishes (Ø 9.5 cm) fitted with filter paper discs and covered. After the nymphs have remained in a controlled-environment cabinet for 4 weeks, the ecdysis rate is determined. 100% means that none of the animals have undergone normal ecdysis. 0% means that all animals have undergone ecdysis. The data are calculated by a 4-parameter logistic curve fit using XLfit (ID Business Solutions Ltd.). If at 1000 ppm 50% mortality has not been reached, the ED50 is judged to be not determinable."}},
  "data": [
    {"smiles": "FC(F)=C(F)Oc1ccc(-c2ccc([C@H]3CCC(c4c(F)cccc4F)=N3)cc2)cc1", "values": [
      {"measurement": "Kill rate in % after 7 d", "setting": "Tetranychus urticae; 0.01 ppm", "result": 98, "unit": "%"}
    ]},
    {"smiles": "CC(C)(C)[Si](C)(C)Oc1ccc(-c2ccc([C@H]3CCC(c4c(F)cccc4F)=N3)cc2)cc1", "note": "[I-8, (2R)-2-(4′-{[tert-butyl(dimethyl)silyl]oxy}-1,1′-biphenyl-4-yl)-5-(2,6-difluorophenyl)-3,4-dihydro-2H-pyrrole]", "values": [
      {"measurement": "melting point", "result": 33, "unit": "°C"},
      {"measurement": "chromatographic logP", "setting": "[1]", "result": 6.2}
    ]},
    {"smiles": "OC1([C@H]2CCC(c3c(F)cccc3F)=N2)C=CC(c2ccccc2)=CC1", "note": "(stereo partly drawn) [I-9, 4′-[(2R)-5-(2,6-difluorophenyl)-3,4-dihydro-2H-pyrrol-2-yl]-1,1′-biphenyl-4′-ol]", "values": [
      {"measurement": "melting point", "result": 217, "unit": "°C"}
    ]},
    {"smiles": "[O-][S+](c1ccc(-c2ccc([C@H]3CCC(c4c(F)cccc4F)=N3)cc2)cc1)C(F)(F)F", "note": "(some centres unmarked) [I-10]", "values": [
      {"measurement": "melting point", "result": "146 to 148", "unit": "°C"}
    ]},
    {"smiles": "O=S(=O)(c1ccc(-c2ccc([C@H]3CCC(c4c(F)cccc4F)=N3)cc2)cc1)C(F)F", "note": "[I-14]", "values": [
      {"measurement": "melting point", "result": "148 to 150", "unit": "°C"}
    ]},
    {"smiles": "Fc1cccc(F)c1C1=N[C@@H](c2ccc(-c3ccc(OC(F)(F)F)cc3)cc2)CC1", "note": "[drawing 59]", "values": [
      {"measurement": "Kill rate in % after 6 d", "setting": "Heliothis armigera; 8 ppm", "result": 100, "unit": "%"}
    ]},
    {"smiles": "Fc1cccc(F)c1C1=N[C@H](c2ccc(-c3ccc(OC(F)(F)F)cc3)cc2)CC1", "note": "[drawing 60, reference compound]", "values": [
      {"measurement": "Kill rate in % after 6 d", "setting": "Heliothis armigera; 8 ppm", "result": 0, "unit": "%"}
    ]},
    {"smiles": "Fc1cccc(F)c1C1=N[C@@H](c2ccc(-c3ccc(SC(F)(F)F)cc3)cc2)CC1", "note": "[drawing 61]", "values": [
      {"measurement": "Kill rate in % after 6 d", "setting": "Heliothis armigera; 1.6 ppm", "result": 100, "unit": "%"}
    ]},
    {"smiles": "Fc1cccc(F)c1C1=N[C@H](c2ccc(-c3ccc(SC(F)(F)F)cc3)cc2)CC1", "note": "[drawing 62, reference compound]", "values": [
      {"measurement": "Kill rate in % after 6 d", "setting": "Heliothis armigera; 1.6 ppm", "result": 0, "unit": "%"}
    ]},
    {"smiles": "Fc1cccc(F)c1C1=NC(c2ccc(-c3ccc(OC(F)(F)F)cc3)cc2)CC1", "note": "(centres unmarked) [drawing 63]", "values": [
      {"measurement": "Kill rate in % after 6 d", "setting": "Heliothis virescens; 0.32 ppm", "result": 20, "unit": "%"}
    ]},
    {"smiles": "Fc1cccc(F)c1C1=N[C@@H](c2ccc(-c3ccc(OC(F)(F)F)cc3)cc2)CC1", "note": "[drawing 64]", "values": [
      {"measurement": "Kill rate in % after 6 d", "setting": "Heliothis virescens; 0.32 ppm", "result": 90, "unit": "%"}
    ]},
    {"smiles": "Fc1cccc(F)c1C1=N[C@H](c2ccc(-c3ccc(OC(F)(F)F)cc3)cc2)CC1", "note": "[drawing 65]", "values": [
      {"measurement": "Kill rate in % after 6 d", "setting": "Heliothis virescens; 8 ppm", "result": 0, "unit": "%"}
    ]},
    {"smiles": "Fc1cccc(F)c1C1=N[C@@H](c2ccc(-c3ccc(SC(F)(F)F)cc3)cc2)CC1", "note": "[drawing 66]", "values": [
      {"measurement": "Kill rate in % after 6 d", "setting": "Heliothis virescens; 1.6 ppm", "result": 100, "unit": "%"}
    ]},
    {"smiles": "Fc1cccc(F)c1C1=N[C@H](c2ccc(-c3ccc(SC(F)(F)F)cc3)cc2)CC1", "note": "[drawing 67]", "values": [
      {"measurement": "Kill rate in % after 6 d", "setting": "Heliothis virescens; 1.6 ppm", "result": 15, "unit": "%"}
    ]},
    {"smiles": "CCOc1cc(C(C)(C)C)ccc1C1CCC(c2c(F)cccc2F)=N1", "note": "(centres unmarked) [drawing 97, reference compound]", "values": [
      {"measurement": "Kill rate in % after 7 d", "setting": "Tetranychus urticae; 0.32 ppm", "result": 0, "unit": "%"}
    ]},
    {"smiles": "CCOc1cc(C(C)(C)C)ccc1[C@H]1CCC(c2c(F)cccc2F)=N1", "note": "[drawing 98]", "values": [
      {"measurement": "Kill rate in % after 7 d", "setting": "Tetranychus urticae; 0.32 ppm", "result": 90, "unit": "%"}
    ]},
    {"smiles": "CCOc1cc(C(C)(C)C)ccc1[C@@H]1CCC(c2c(F)cccc2F)=N1", "note": "[drawing 99, reference compound]", "values": [
      {"measurement": "Kill rate in % after 7 d", "setting": "Tetranychus urticae; 8 ppm", "result": 0, "unit": "%"}
    ]},
    {"smiles": "Fc1cccc(F)c1C1=N[C@@H](c2ccc(-c3ccc(OC(F)(F)F)cc3)cc2)CC1", "note": "[drawing 100]", "values": [
      {"measurement": "Kill rate in % after 7 d", "setting": "Tetranychus urticae; 0.0128 ppm", "result": 95, "unit": "%"}
    ]},
    {"smiles": "Fc1cccc(F)c1C1=N[C@H](c2ccc(-c3ccc(OC(F)(F)F)cc3)cc2)CC1", "note": "[drawing 101, reference compound]", "values": [
      {"measurement": "Kill rate in % after 7 d", "setting": "Tetranychus urticae; 0.0128 ppm", "result": 0, "unit": "%"}
    ]},
    {"smiles": "CCOc1cc(C(C)(C)C)ccc1C1CCC(c2c(F)cccc2F)=N1", "note": "(centres unmarked) [drawing 103]", "values": [
      {"measurement": "Effects on ecdysis in %", "setting": "[2]", "result": 100, "unit": "%"}
    ]},
    {"smiles": "CCOc1cc(C(C)(C)C)ccc1[C@H]1CCC(c2c(F)cccc2F)=N1", "note": "[drawing 104]", "values": [
      {"measurement": "Effects on ecdysis in %", "setting": "[2]", "result": 100, "unit": "%"}
    ]},
    {"smiles": "CCOc1cc(C(C)(C)C)ccc1[C@@H]1CCC(c2c(F)cccc2F)=N1", "note": "[drawing 105]", "values": [
      {"measurement": "Effects on ecdysis in %", "setting": "[2]", "result": 0, "unit": "%"}
    ]},
    {"smiles": "Fc1cccc(F)c1C1=NC(c2ccc(-c3ccc(OC(F)(F)F)cc3)cc2)CC1", "note": "(centres unmarked) [drawing 106]", "values": [
      {"measurement": "Effects on ecdysis in %", "setting": "[2]", "result": 100, "unit": "%"}
    ]},
    {"smiles": "Fc1cccc(F)c1C1=N[C@@H](c2ccc(-c3ccc(OC(F)(F)F)cc3)cc2)CC1", "note": "[drawing 107]", "values": [
      {"measurement": "Effects on ecdysis in %", "setting": "[2]", "result": 100, "unit": "%"}
    ]},
    {"smiles": "Fc1cccc(F)c1C1=N[C@H](c2ccc(-c3ccc(OC(F)(F)F)cc3)cc2)CC1", "note": "[drawing 108]", "values": [
      {"measurement": "Effects on ecdysis in %", "setting": "[2]", "result": 0, "unit": "%"}
    ]},
    {"smiles": "CCOc1cc(C(C)(C)C)ccc1C1CCC(c2c(F)cccc2F)=N1", "note": "(centres unmarked) [drawing 109]", "values": [
      {"measurement": "ED 50 (ppm)", "setting": "[3]", "result": 0.27, "unit": "ppm"}
    ]},
    {"smiles": "CCOc1cc(C(C)(C)C)ccc1[C@H]1CCC(c2c(F)cccc2F)=N1", "note": "[drawing 110]", "values": [
      {"measurement": "ED 50 (ppm)", "setting": "[3]", "result": 0.14, "unit": "ppm"}
    ]},
    {"smiles": "CCOc1cc(C(C)(C)C)ccc1[C@@H]1CCC(c2c(F)cccc2F)=N1", "note": "[drawing 111]", "values": [
      {"measurement": "ED 50 (ppm)", "setting": "[3]", "result": "notdeterminable"}
    ]},
    {"smiles": "Fc1cccc(F)c1C1=NC(c2ccc(-c3ccc(OC(F)(F)F)cc3)cc2)CC1", "note": "(centres unmarked) [drawing 112]", "values": [
      {"measurement": "ED 50 (ppm)", "setting": "[3]", "result": 0.58, "unit": "ppm"}
    ]},
    {"smiles": "Fc1cccc(F)c1C1=N[C@@H](c2ccc(-c3ccc(OC(F)(F)F)cc3)cc2)CC1", "note": "[drawing 113]", "values": [
      {"measurement": "ED 50 (ppm)", "setting": "[3]", "result": 0.20, "unit": "ppm"}
    ]},
    {"smiles": "Fc1cccc(F)c1C1=N[C@H](c2ccc(-c3ccc(OC(F)(F)F)cc3)cc2)CC1", "note": "[drawing 114]", "values": [
      {"measurement": "ED 50 (ppm)", "setting": "[3]", "result": 549.86, "unit": "ppm"}
    ]}
  ]
}
